Measurements reported in ChEMBL document CHEMBL5505990, “Novel aroyl guanidine anti-trypanosomal compounds that exert opposing effects on parasite energy metabolism” (Eur J Med Chem, 2024).
pIC50: −log10 of the molar value. Each block holds one compound with its values, some of them ahead of it. Active and inactive are the calls of the source. The calls are words filed in the database; no cut-off is given here.

Columns and labels:
[1] = tested on: Trypanosoma brucei brucei; experiment: Disruption of nucleotide metabolism in bloodstream Trypanosoma brucei brucei 427 assessed as accumulation of purine/pyrimidine base forms at 1 uM incubated for 5 hrs; assay type: functional, organism-based
[2] = tested on: Trypanosoma brucei brucei; experiment: Induction of glycolysis in bloodstream Trypanosoma brucei brucei 427 assessed as increase in glycerol level at 1 uM incubated for 5 hrs; assay type: functional
[3] = tested on: Trypanosoma brucei brucei; experiment: Upregulation of glycolytic flux in bloodstream Trypanosoma brucei brucei 427 assessed as increase in pyruvate level at 1 uM incubated for 5 hrs; assay type: functional
[4] = tested on: Trypanosoma brucei brucei; experiment: Induction of glycolysis in bloodstream Trypanosoma brucei brucei 427 assessed as increase in succinate level at 1 uM incubated for 5 hrs; assay type: functional
[5] = tested on: Trypanosoma brucei brucei; experiment: Disruption of nucleotide metabolism in bloodstream Trypanosoma brucei brucei 427 assessed as accumulation of NDP at 1 uM incubated for 5 hrs; assay type: functional, organism-based
[6] = tested on: Trypanosoma brucei brucei; experiment: Effect on acetyl-carnitine level in bloodstream Trypanosoma brucei brucei 427 assessed as increase in pyruvate level at 1 uM incubated for 5 hrs; assay type: functional
[7] = tested on: Trypanosoma brucei brucei; experiment: Anti-trypanosomal activity against Trypanosoma brucei brucei; assay type: functional, organism-based
[8] = tested on: Trypanosoma brucei brucei; experiment: Effect on acetyl-CoA level in bloodstream Trypanosoma brucei brucei 427 assessed as increase in pyruvate level at 1 uM incubated for 5 hrs; assay type: functional
[9] = tested on: Trypanosoma brucei brucei; experiment: Effect on palmitoyl-CoA level in bloodstream Trypanosoma brucei brucei 427 assessed as increase in pyruvate level at 1 uM incubated for 5 hrs; assay type: functional
[10] = Selectivity ratio of IC50 for HEK293 cells to IC50 for Trypanosoma brucei brucei; assay type: toxicity; conditions: human, read-out: Ratio IC50
[11] = tested on: Trypanosoma brucei brucei; experiment: Upregulation of carnitine to acetyl-carnitine ratio in bloodstream Trypanosoma brucei brucei 427 assessed as increase in pyruvate level at 1 uM incubated for 5 hrs; assay type: functional
[12] = tested on: Trypanosoma brucei brucei; experiment: Effect on free CoA level in bloodstream Trypanosoma brucei brucei 427 assessed as increase in pyruvate level at 1 uM incubated for 5 hrs; assay type: functional
[13] = tested on: Trypanosoma brucei brucei; experiment: Effect on free carnitine level in bloodstream Trypanosoma brucei brucei 427 assessed as increase in pyruvate level at 1 uM incubated for 5 hrs; assay type: functional
[14] = tested on: Trypanosoma brucei brucei; experiment: Disruption of nucleotide metabolism in bloodstream Trypanosoma brucei brucei 427 assessed as accumulation of nucleosides at 1 uM incubated for 5 hrs; assay type: functional, organism-based
[15] = tested on: Trypanosoma brucei brucei; experiment: Downregulation of NADPH level in bloodstream Trypanosoma brucei brucei 427 assessed as increase in pyruvate level at 1 uM incubated for 5 hrs; assay type: functional
[16] = tested on: Trypanosoma brucei brucei; experiment: Disruption of nucleotide metabolism in bloodstream Trypanosoma brucei brucei 427 assessed as accumulation of NMP at 1 uM incubated for 5 hrs; assay type: functional, organism-based
[17] = tested on: Trypanosoma brucei brucei; experiment: Induction of glycolysis in bloodstream Trypanosoma brucei brucei 427 assessed as increase in pyruvate level at 1 uM incubated for 5 hrs; assay type: functional
[18] = tested on: Trypanosoma brucei brucei; experiment: Disruption of nucleotide metabolism in bloodstream Trypanosoma brucei brucei 427 assessed as depletion of NTP at 1 uM incubated for 5 hrs; assay type: functional, organism-based
[19] = tested on: Trypanosoma brucei brucei; experiment: Downregulation of 6-phosphogluconate level in bloodstream Trypanosoma brucei brucei 427 assessed as increase in pyruvate level at 1 uM incubated for 5 hrs; assay type: functional
[20] = tested on: Trypanosoma brucei brucei; experiment: Effect on stearoyl-CoA level in bloodstream Trypanosoma brucei brucei 427 assessed as increase in pyruvate level at 1 uM incubated for 5 hrs; assay type: functional
[21] = Cytotoxicity against HEK293 cells; assay type: toxicity, cell-based; conditions: human
[22] = tested on: Trypanosoma brucei brucei; experiment: Disruption of nucleotide metabolism in bloodstream Trypanosoma brucei brucei 427 assessed as depletion of deoxy-CTP at 1 uM incubated for 5 hrs; assay type: functional, organism-based
[23] = tested on: Trypanosoma brucei brucei; experiment: Disruption of nucleotide metabolism in bloodstream Trypanosoma brucei brucei 427 assessed as depletion of GTP at 1 uM incubated for 5 hrs; assay type: functional, organism-based
[24] = tested on: Trypanosoma brucei brucei; experiment: Disruption of nucleotide metabolism in bloodstream Trypanosoma brucei brucei 427 assessed as depletion of ATP at 1 uM incubated for 5 hrs; assay type: functional, organism-based
[25] = tested on: Trypanosoma brucei brucei; experiment: Disruption of nucleotide metabolism in bloodstream Trypanosoma brucei brucei 427 assessed as depletion of UTP at 1 uM incubated for 5 hrs; assay type: functional, organism-based
[26] = tested on: Trypanosoma brucei brucei; experiment: Disruption of nucleotide metabolism in bloodstream Trypanosoma brucei brucei 427 assessed as depletion of deoxy-GTP at 1 uM incubated for 5 hrs; assay type: functional, organism-based
[27] = tested on: Trypanosoma brucei brucei; experiment: Disruption of nucleotide metabolism in bloodstream Trypanosoma brucei brucei 427 assessed as depletion of deoxy-UTP at 1 uM incubated for 5 hrs; assay type: functional, organism-based
[28] = tested on: Trypanosoma brucei brucei; experiment: Disruption of nucleotide metabolism in bloodstream Trypanosoma brucei brucei 427 assessed as depletion of deoxy-ATP at 1 uM incubated for 5 hrs; assay type: functional, organism-based
[29] = tested on: Trypanosoma brucei brucei; experiment: Disruption of nucleotide metabolism in bloodstream Trypanosoma brucei brucei 427 assessed as depletion of CTP at 1 uM incubated for 5 hrs; assay type: functional, organism-based
[30] = Cytotoxicity against HEK293 cells assessed as inhibition of cell viability at 83 uM relative to control; assay type: toxicity, cell-based; conditions: human, read-out: INH
[31] = tested on: Trypanosoma brucei brucei; experiment: Anti-trypanosomal activity against Trypanosoma brucei brucei at 10 uM relative to control; assay type: functional

pIC50 [7]: 5.74
Structure (SMILES): CCc1ccccc1/N=C(\NCCN1CCOCC1)NC(=O)c1ccc(F)cc1
Activity [1]: inactive | Activity [2]: inactive | Activity [3]: inactive | Activity [4]: inactive | Activity [5]: inactive | Activity [6]: inactive | Activity [8]: Active | Activity [9]: inactive | selectivity ratio [10]: 46 | Activity [11]: inactive | Activity [12]: inactive | Activity [13]: inactive | Activity [14]: inactive | Activity [15]: inactive | Activity [16]: inactive | Activity [17]: inactive | Activity [18]: inactive | Activity [19]: inactive | Activity [20]: inactive | pIC50 [21]: < 4.08

pIC50 [7]: 5.38
Structure (SMILES): O=C(N/C(=N/c1ccccc1Br)NCCN1CCOCC1)c1ccccc1
Activity [22]: Active | Activity [23]: Active | Activity [1]: Active | Activity [2]: Active | Activity [24]: Active | Activity [25]: Active | Activity [3]: Active | Activity [4]: Active | Activity [5]: Active | Activity [6]: Active | Activity [8]: inactive | Activity [26]: Active | Activity [27]: Active | Activity [28]: Active | Activity [9]: Active | selectivity ratio [10]: > 19 | Activity [11]: Active | Activity [29]: Active | Activity [12]: Active | Activity [13]: Active | Activity [14]: Active | Activity [15]: Active | Activity [16]: Active | Activity [17]: Active | Activity [19]: Active | Activity [20]: Active | pIC50 [21]: < 4.08

pIC50 [7]: 5.74
Structure (SMILES): CCc1ccccc1/N=C(\NCCN1CCOCC1)NC(=O)c1ccc(F)c(F)c1
Activity [22]: Active | Activity [23]: Active | Activity [2]: Active | Activity [24]: Active | Activity [25]: Active | Activity [3]: Active | Activity [4]: Active | Activity [6]: Active | Activity [8]: inactive | Activity [26]: Active | cytotoxicity at 83 µM [30]: 86% | Activity [27]: Active | Activity [28]: Active | Activity [9]: Active | Activity [11]: Active | Activity [29]: Active | Activity [12]: Active | Activity [13]: Active | Activity [15]: Active | Activity [17]: Active | Activity [19]: Active | Activity [20]: Active

Structure (SMILES): Cc1ccccc1/N=C(\NCCN1CCOCC1)NC(=O)c1ccccc1
Activity [1]: inactive | Activity [2]: inactive | Activity [3]: inactive | Activity [4]: inactive | Activity [5]: inactive | Activity [6]: inactive | Activity [8]: Active | Activity [9]: inactive | Activity [11]: inactive | Activity [12]: inactive | inhibition at 10 µM [31]: 75% | Activity [13]: inactive | Activity [14]: inactive | Activity [15]: inactive | Activity [16]: inactive | Activity [17]: inactive | Activity [18]: inactive | Activity [19]: inactive | Activity [20]: inactive | pIC50 [21]: < 4.08
